Experimental data from patent US20240307349A1, “METHODS FOR THE PREPARATION AND DOSE REGIMENS FOR USE OF SSTR4 AGONISTS AND SALTS THEREOF” (priority 2023, published 2024).
Read-outs that look alike come from different tables or passages of the source.

Key:
Type in all cases: in vivo, human
participants with DPNP = assay: H0P-MC-NP03 Phase 2 placebo-controlled trial, diabetic peripheral neuropathic pain
Text: The purpose of this study was to test whether Example 5 is efficacious in relieving diabetic peripheral neuropathic pain (DPNP). Data was collected to assess the safety and tolerability of Example 5 in this study population and previously discussed above. Pharmacokinetic properties and pharmacodynamic effects were also explored. The totality of data from this proof-of-concept study will assess the benefits and risks associated with Example 5.
NP03 was an 8-week, Phase 2, randomized, double-blind, placebo-controlled study that compared Example 5 versus placebo in participants with DPNP.
Participants received either Example 5 or placebo. Based on tolerability, participants received up to a maximum of 3 capsules orally (each capsule was 200 mg), twice daily, approximately every 12 hours, for a total dose of 600 mg.
The primary clinical question of interest was, “What is the treatment difference between Example 5 and placebo assessed using mean change from baseline to endpoint (Week 8) for average pain intensity (API) as measured by the Numeric Rating Scale (NRS) in participants with diabetic peripheral neuropathic pain (DPNP) regardless of initiation of rescue medication or other allowed concomitant medication and assuming that they would have continued initially randomized treatment condition?”
Participants were randomly assigned 2:1 to Example 5 or placebo. Based on tolerability, participants could take up to a maximum of 3 capsules orally (each capsule was 200 mg), twice daily (BID), approximately every 12 hours, for a total dose of 600 mg BID.
The protocol allowed changes to the dose for individual participants, but the maximum daily dose should not exceed 600 mg BID. The starting dose level was 200 mg BID. Decisions to change the dose level were made by the investigator in discussion with the participants based on the adverse events (AEs) reported for tolerability. The medical monitor was contacted as needed. All changes in dose level had to occur before the end of Visit 4 (Study Week 2).
NP03 was an 8-week, multicenter, randomized, DB, placebo-controlled, Phase 2, proof-of-concept study to evaluate Example 5 for the treatment of DPNP. Participants were randomly assigned 2:1 to Example 5 or placebo. A total of 68 participants enrolled into the NP03 ISA, with 45 participants randomly assigned to Example 5, and 23 participants assigned to placebo. The safety population consisted of the 68 participants who received at least 1 dose of study intervention and included all participants in the enrolled population. Using a titration scheme, Example 5 was administered orally as a maximum of 3 capsule (200 mg per capsule) for a total dose of 600 mg approximately every 12 hours, with or without food. Fifty percent of participants completed the BD treatment phase.

participants with CLBP = assay: H0P-MC-BP03 Phase 2 placebo-controlled trial, chronic low back pain
Text: The purpose of this study was to test whether Example 5 is efficacious in relieving chronic low back pain (CLBP). Data will be collected to assess the safety and tolerability of Example 5 in this study population, which was previously discussed. Pharmacokinetic (PK) properties and pharmacodynamic (PD) effects were also be explored. The totality of data from this proof-of-concept study will assess the benefits and risks associated with Example 5.
BP03 was an 8-week, Phase 2, randomized, double-blind, placebo-controlled study that will compare Example 5 versus placebo in participants with CLBP. Participants received either Example 5 or placebo. Based on tolerability, participants took up to a maximum of 3 capsules orally (each capsule is 200 mg), twice daily (BID), approximately every 12 hours, for a total dose of 600 mg.
The primary clinical question of interest was, “What is the treatment difference between Example 5 and placebo assessed using mean change from baseline to endpoint (Week 8) for average pain intensity (API) as measured by the numeric rating scale (NRS) in participants with CLBP regardless of initiation of rescue medication or other allowed concomitant medication and assuming that they would have continued initially randomized treatment condition?”

[1] = Phase 1 study LXBA, multiple-dose steady-state plasma PK in healthy subjects; conditions: for RA (accumulation ratio based on AUC(0-τ)) / AUC: tau = 12 hours; for Cmax / AUC(0-t) / AUC: human, in vivo, steady state; for Cmax: n = 6, geometric mean; for AUC(0-t): = 2 × AUC(0-τ), read-out: AUC(0-24); for AUC: geometric mean, read-out: AUC(0-τ)
Protocol: The multiple-dose PK of Example 5 were evaluated at doses of 200 mg, 400 mg, and 600 mg, twice daily. The median time to tmax ranged from 1 to 3 hours post dose.
Study LXBA is a completed study and consisted of 2 parts, Part A and Part B (TABLE 1). Part A of the study had 18 healthy subjects in 3 dosing cohorts, and Part B had 9 healthy subjects exposed to Example 5. […] In Part A, all treatment-emergent adverse events (TEAEs) were mild in severity except for 1 moderate event of presyncope. Constipation and insomnia (2 events each) were the only TEAEs reported in >1 subject. In Part B, the reported TEAEs were dysgeusia, nausea, and vomiting, which were all mild in severity.

SMILES: Cc1cccnc1OCC(C)(C)NC(=O)[C@H]1[C@@H]2CNC[C@@H]21.O=C(O)C(O)C(O)C(=O)O [Example 5, (1R,5S,6r)-N-(2-Methyl-1-((3-methylpyridin-2-yl)oxy)propan-2-yl)-3-azabicyclo[3.1.0]hexane-6-carboxamide L-tartrate sesquihydrate]
- Mean Change of Average Pain Intensity, Weekly Average of NRS (participants with DPNP; 400 mg BID, week 1, n = 8): −0.74
- Observed Mean of Average Pain Intensity, Weekly Average of NRS (participants with DPNP; 400 mg BID, week 1, n = 8): 5.76
- Mean Change of Average Pain Intensity, Weekly Average of NRS (participants with DPNP; 400 mg BID, week 2, n = 9): −1.62
- Observed Mean of Average Pain Intensity, Weekly Average of NRS (participants with DPNP; 400 mg BID, week 2, n = 9): 4.90
- Mean Change of Average Pain Intensity, Weekly Average of NRS (participants with DPNP; 400 mg BID, week 3, n = 9): −2.12
- Observed Mean of Average Pain Intensity, Weekly Average of NRS (participants with DPNP; 400 mg BID, week 3, n = 9): 4.41
- Mean Change of Average Pain Intensity, Weekly Average of NRS (participants with DPNP; 400 mg BID, week 4, n = 6): −2.05
- Observed Mean of Average Pain Intensity, Weekly Average of NRS (participants with DPNP; 400 mg BID, week 4, n = 6): 5.46
- Mean Change of Average Pain Intensity, Weekly Average of NRS (participants with DPNP; 400 mg BID, week 5, n = 4): −3.37
- Observed Mean of Average Pain Intensity, Weekly Average of NRS (participants with DPNP; 400 mg BID, week 5, n = 4): 4.66
- Mean Change of Average Pain Intensity, Weekly Average of NRS (participants with DPNP; 400 mg BID, week 6, n = 5): −2.72
- Observed Mean of Average Pain Intensity, Weekly Average of NRS (participants with DPNP; 400 mg BID, week 6, n = 5): 4.15
- Mean Change of Average Pain Intensity, Weekly Average of NRS (participants with DPNP; 400 mg BID, week 7, n = 4): −3.34
- Observed Mean of Average Pain Intensity, Weekly Average of NRS (participants with DPNP; 400 mg BID, week 7, n = 4): 2.96
- Mean Change of Average Pain Intensity, Weekly Average of NRS (participants with DPNP; 400 mg BID, week 8, n = 4): −3.39
- Observed Mean of Average Pain Intensity, Weekly Average of NRS (participants with DPNP; 400 mg BID, week 8, n = 4): 4.17
- Mean Change of Average Pain Intensity, Weekly Average of NRS (participants with DPNP; 600 mg BID, week 1, n = 30): −0.72
- Observed Mean of Average Pain Intensity, Weekly Average of NRS (participants with DPNP; 600 mg BID, week 1, n = 30): 5.77
- Mean Change of Average Pain Intensity, Weekly Average of NRS (participants with DPNP; 600 mg BID, week 2, n = 29): −1.59
- Observed Mean of Average Pain Intensity, Weekly Average of NRS (participants with DPNP; 600 mg BID, week 2, n = 29): 4.91
- Mean Change of Average Pain Intensity, Weekly Average of NRS (participants with DPNP; 600 mg BID, week 3, n = 23): −2.09
- Observed Mean of Average Pain Intensity, Weekly Average of NRS (participants with DPNP; 600 mg BID, week 3, n = 23): 4.82
- Mean Change of Average Pain Intensity, Weekly Average of NRS (participants with DPNP; 600 mg BID, week 4, n = 24): −2.18
- Observed Mean of Average Pain Intensity, Weekly Average of NRS (participants with DPNP; 600 mg BID, week 4, n = 24): 4.64
- Mean Change of Average Pain Intensity, Weekly Average of NRS (participants with DPNP; 600 mg BID, week 5, n = 21): −2.43
- Observed Mean of Average Pain Intensity, Weekly Average of NRS (participants with DPNP; 600 mg BID, week 5, n = 21): 4.18
- Mean Change of Average Pain Intensity, Weekly Average of NRS (participants with DPNP; 600 mg BID, week 6, n = 19): −2.37
- Observed Mean of Average Pain Intensity, Weekly Average of NRS (participants with DPNP; 600 mg BID, week 6, n = 19): 4.26
- Mean Change of Average Pain Intensity, Weekly Average of NRS (participants with DPNP; 600 mg BID, week 7, n = 17): −2.64
- Observed Mean of Average Pain Intensity, Weekly Average of NRS (participants with DPNP; 600 mg BID, week 7, n = 17): 3.78
- Mean Change of Average Pain Intensity, Weekly Average of NRS (participants with DPNP; 600 mg BID, week 8, n = 16): −2.74
- Observed Mean of Average Pain Intensity, Weekly Average of NRS (participants with DPNP; 600 mg BID, week 8, n = 16): 3.79
- Mean change from baseline assessment to endpoint for API as measured using the NRS (participants with DPNP; 8 weeks after initial treatment administration, up to 600 mg Q12H, n = 45): −2.75
- most secondary endpoints compared with placebo (participants with DPNP; DPNP): greater numerical improvements
- decrease in API measured by NRS, 400 mg dosing regimen compared with the 600 mg dosing regimen (participants with DPNP; Week 8): greater decrease in API measured by NRS in the 400 mg dosing regimen
- primary objective: posterior probability for change from baseline in API versus placebo (participants with DPNP; Week 8, DPNP): met the prespecified threshold
- Mean change from baseline assessment to endpoint for worst pain intensity as measured by weekly NRS (participants with DPNP; Week 8, n = 45): −3.06
- Mean change from baseline assessment to endpoint on the VAS for pain (participants with DPNP; Week 8, n = 45): −30.20
- Mean change from baseline to endpoint for the BPI-SFM (participants with DPNP; Week 8, n = 45): −2.31
- Overall improvement to endpoint as measured by PGIC (participants with DPNP; Week 8, n = 45): 2.3
- Mean change from baseline assessment to endpoint for API as measured using the NRS (participants with CLBP; 8 weeks after initial treatment administration, up to 600 mg Q12H, n = 102): −1.7
- primary objective: efficacy versus placebo, API by weekly average of NRS (participants with CLBP; Week 8, CLBP): did not meet the prespecified threshold
- RA (accumulation ratio based on AUC(0-τ)) ([1]; 200 mg BID): 1.49
- RA (accumulation ratio based on AUC(0-τ)) ([1]; 400 mg BID): 1.81
- RA (accumulation ratio based on AUC(0-τ)) ([1]; 600 mg BID): 1.64
- Cmax ([1]; 200 mg BID (400 mg)): 1620 ng/mL
- AUC(0-t) ([1]; 200 mg BID): 23000 ng·h/mL
- AUC ([1]; 200 mg BID): 11500 ng·h/mL
- Cmax ([1]; 400 mg BID (800 mg)): 3240 ng/mL
- AUC(0-t) ([1]; 400 mg BID): 51000 ng·h/mL
- AUC ([1]; 400 mg BID): 25800 ng·h/mL
- Cmax ([1]; 600 mg BID (1200 mg)): 5210 ng/mL
- AUC(0-t) ([1]; 600 mg BID): 77400 ng·h/mL
- AUC ([1]; 600 mg BID): 38700 ng·h/mL
- steady-state Cmax and AUC0-24 inter-subject coefficient of variations ([1]; multiple dose, 200 mg, 400 mg and 600 mg twice daily): < 25%
